Test results from patent US9125857B2, “Method for producing a drug extract that contains hydroxystilbene” (priority 2005, dated 2015).

Assays:
[1] = Dissolving tests with ERr 731 dry extract in ethanol and glycerol; format: physicochemical; conditions: for dissolved proportion, % of theory, Test B / content found in solution, Test B: 200 mg of dry extract in 50 ml of ethanol 30% R; for content found in solution, Test B / content found in solution, Test C / content found in solution, Test D / content found in solution, Test A: extract content 61.9% rhaponticin, 29.9% deoxyrhaponticin; for dissolved proportion, % of theory, Test C / content found in solution, Test C: 200 mg of dry extract in 50 ml of ethanol 50% R; for dissolved proportion, % of theory, Test D / content found in solution, Test D: 200 mg of dry extract in 50 ml of ethanol 86% R; for dissolved proportion, % of theory, Test A / content found in solution, Test A: 200 mg of dry extract in 50 ml of glycerol R
Protocol: Determination of Stilbenes by High-Pressure Liquid Chromatography (HPLC) in the Dry Extract from Rhapontic Rhubarb Root
50 mg of extract, mixed with 40 ml of a mixture of acetone and water (1:1) in an amber glass vessel, treated in an ultrasonic bath for 15 minutes and made up to 50 ml with the solvent mixture and then diluted 1:10 with the solvent mixture.
A high-pressure liquid chromatography (HPLC) is carried out on a portion of the solution obtained above, with the following system parameters:
For a quantitative determination, the respective peak areas are found and compared with the corresponding peak areas of a standard extract of known composition.
a) Dissolving Tests with ERr 731® in Ethanol and Glycerol:
Content of the extract: • 61.9% rhaponticin • 29.9% deoxyrphaponticin

[2] = pH-dependent solubility of rhaponticin in aqueous solutions; format: physicochemical
Excerpt: Use is made of this for its isolation. Since, besides other organic acids, the root in particular has a high content of oxalic acid (⅔ in water-soluble and ⅓ in bound form), this must be neutralized during the isolation in order to prevent the pH drifting into the acidic range and thus to inhibit premature precipitation of the rhaponticin. This is achieved by using calcium oxide. The latter is employed as quicklime solution with a pH of 12.4-12.6.

| SMILES | dissolved proportion, % of theory, Test B [1] | content found in solution, Test B [1] | dissolved proportion, % of theory, Test C [1] | content found in solution, Test C [1] | dissolved proportion, % of theory, Test D [1] | content found in solution, Test D [1] | dissolved proportion, % of theory, Test A [1] | content found in solution, Test A [1] | solubility in aqueous solutions ([2]; acidic pH range (pH 3.4-3.6)) | solubility in aqueous solutions ([2]; alkaline pH range) |
| --- | --- | --- | --- | --- | --- | --- | --- | --- | --- | --- |
| COc1ccc(C=Cc2cc(O)cc(O[C@@H]3O[C@H](CO)[C@@H](O)[C@H](O)[C@H]3O)c2)cc1 [deoxyrhaponticin] | (84.2% of theory) | 25.2% deoxyrhaponticin | (97.0% of theory) | 29.0% deoxyrhaponticin | (98.7% of theory) | 29.5% deoxyrhaponticin | (90.6% of theory) | 27.1% deoxyrhaponticin |  |  |
| COc1ccc(C=Cc2cc(O)cc(O[C@@H]3O[C@H](CO)[C@@H](O)[C@H](O)[C@H]3O)c2)cc1O [rhaponticin, 3,3′,5-Trihydroxy-4′-methoxystilbene-3-O-β-D-glucopyranoside] | (84.3% of theory) | 52.2% rhaponticin | (95.0% of theory) | 58.8% rhaponticin | (96.6% of theory) | 59.8% rhaponticin | (89.0% of theory) | 55.1% rhaponticin | precipitated | readily soluble |
